Results from US9365633B2, “Peptide preparations and peptides with antitumour activity” (Instytut Medycyny Doswiadczalnej I Klinicznej Pan, priority 2010, dated 2016).

System: melanoma cells of the line MeW 155
Assay: Effect of synthetic peptides on proliferation of melanoma cells, 3 day culture in 96-well plate
Assay type: cell-based
Conditions: 3 days of culture; for cell numbers, % of the control: 4000 cells per well; for toxicity to MeW 155 melanoma cells: MeW 155, 0.1 mM
Experimental: The synthetic peptides were examined for their effect on the proliferation of melanoma cells of the line MeW 155. The culture was maintained under standard conditions for 3 days with 4000 cells per well of a 96-well culture plate. After three days, the numbers of cells in the control group increased to 120 000. It turned out that after 3 days of culture, peptide 91 at a concentration of 0.004 mM decreased cell numbers to 55% of the control, and a 0.02 mM concentration decreased the cells to 35%, whereas 0.1 mM was toxic to MeW 155 cells. Peptide 92 at 0.004 mM decreased the number of tumour cells to 65% of the control, a 0.02 mMol concentration decreased the number of cells to 49%, and a concentration of 0.1 mM was toxic to melanoma cells.

Sequence | cell numbers, % of the control (MeW 155, 0.004 mM) [%] | cell numbers, % of the control (MeW 155, 0.02 mM) [%] | toxicity to MeW 155 melanoma cells
YRPWGSGSGF [compound 92] | 65 | 49 | toxic
YRPWGSGSGFG [peptide 91] | 55 | 35 | toxic
